“Also recorded” adds a separate entry of the source.
Key:
[1] = target: T1, HERG (Human Ether-a-go-go-Related Gene) channel (Homo sapiens, UniProt Q12809); experiment: Evaluation of cardiotoxicity, patch-clamp on HEK293 cells expressing HERG channel; assay type: cell-based; settings: HERG peak tail current
T1 construct: expressed in transfected cells; host or cells: HEK293
Procedure: HEK293 cells expressing HERG (Human Ether-a-go-go-Related Gene) channel safely were cultured in MEM (Minimum Essential Medium) supplemented with 10% fetal bovine serum (FBS), 1 mM sodium pyruvate, 0.1 mM non-essential amino acid solution, 100 units/ml penicillin-streptomycin, 100 μg/ml streptomycin sulfate and 100 μg/ml zeocin under the condition of air:CO2=95:5. When the cells were grown to 60-80% confluency, the cells were loaded in the medium supplemented with 0.25% trypsin and 0.02% EDTA (ethylenediaminetertraacetic acid) for 3 minutes. The cells were then washed with a fresh medium and then dispensed on a new plastic culture dish. For the electrophysiological record, the cells were seeded on a glass cover slip of 5 mm in diameter, followed by incubation in a 24-well plate for 5-24 hours. Then, the cells were transferred into the recording chamber.
The current value of all the cells was measured by the conventional patch-clamp technique or Port-a-Patch (Nanion, Germany) semiautomatic technique. The pH of the external bath solution containing 136 mM NaCl, 5.4 mM KCl, 1.8 mM CaCl2, 1 mM MgCl2, 10 mM glucose, and 10 mM HEPES (4-(2-hydroxyethyl)-1-piperazineethanesulfonic acid) was adjusted to 7.4 using NaOH. The pH of the intracellular pipette solution containing 130 mM KCl, 1 mM MgCl2, 10 mM EGTA (ethylene glycol tetraacetic acid), 5 mM Mg-ATP, and mM HEPES was adjusted to 7.2 using KOH.
In the conventional patch-clamp technique, the patch pipette was pulled by a PP-83 pipette puller (Narishige, Tokyo, Japan), so that it had 2-4 MΩ of resistance in the external bath solution. The ionic current was recorded by using EPC7 pulse amplifier (HEKA electronic, Germany). The voltage-clamp amplification was regulated using the pClamp computer program (Axon Instruments, USA), and the obtained data were analyzed. During the recording, the solution above was continually spread on HEK293 cells in the chamber. For the recording, the Port-a-Patch (Nanion, Germany) semiautomatic patch system was used, and the amplifier used herein was EPC10.
The membrane potential was maintained at −80 mV, which was changed to +20 mV for 4 seconds, then changed to −50 mV for 6 seconds and then maintained again at −80 mV. The changes were made every 25 seconds.
To obtain the concentration-reaction curve in the presence of the drug, dose-dependent inhibition was entered into the Hill formula represented by mathematical formula 1 below.
In mathematical formula 1, Idrug indicates the peak tail current in the presence of a drug, Icontrol indicates the maximum peak tail current in the absence of a drug, D indicates the concentration of a drug, h indicates Hill constant, and IC50 indicates the concentration when the half-maximum peak tail current was suppressed.

CYP 2C9 = target: T2, CYP 2C9 (Homo sapiens, UniProt P11712); experiment: CYP (cytochrome P450)-suppressing effect, Invitrogen Vivid kit; assay type: in vitro ADME
T2 construct: purchased Invitrogen P2861
T2 sequence (P11712 whole entry): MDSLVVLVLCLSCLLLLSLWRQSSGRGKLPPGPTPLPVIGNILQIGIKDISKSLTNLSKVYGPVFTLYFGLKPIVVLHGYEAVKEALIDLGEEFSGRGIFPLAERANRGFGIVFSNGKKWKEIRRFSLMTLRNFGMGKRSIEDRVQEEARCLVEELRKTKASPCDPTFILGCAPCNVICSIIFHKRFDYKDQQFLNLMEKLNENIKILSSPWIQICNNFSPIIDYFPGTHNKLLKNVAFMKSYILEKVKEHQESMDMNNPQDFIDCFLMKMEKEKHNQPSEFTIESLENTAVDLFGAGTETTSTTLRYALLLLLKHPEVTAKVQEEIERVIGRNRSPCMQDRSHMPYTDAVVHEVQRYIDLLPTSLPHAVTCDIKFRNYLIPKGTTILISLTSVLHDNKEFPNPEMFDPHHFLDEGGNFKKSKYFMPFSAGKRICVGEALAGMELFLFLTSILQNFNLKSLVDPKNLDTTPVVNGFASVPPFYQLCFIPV

CYP 2D6 = target: T3, CYP 2D6 (Homo sapiens, UniProt P10635); experiment: as above; assay type: in vitro ADME
T3 construct: purchased Invitrogen P2862
T3 sequence (P10635 whole entry): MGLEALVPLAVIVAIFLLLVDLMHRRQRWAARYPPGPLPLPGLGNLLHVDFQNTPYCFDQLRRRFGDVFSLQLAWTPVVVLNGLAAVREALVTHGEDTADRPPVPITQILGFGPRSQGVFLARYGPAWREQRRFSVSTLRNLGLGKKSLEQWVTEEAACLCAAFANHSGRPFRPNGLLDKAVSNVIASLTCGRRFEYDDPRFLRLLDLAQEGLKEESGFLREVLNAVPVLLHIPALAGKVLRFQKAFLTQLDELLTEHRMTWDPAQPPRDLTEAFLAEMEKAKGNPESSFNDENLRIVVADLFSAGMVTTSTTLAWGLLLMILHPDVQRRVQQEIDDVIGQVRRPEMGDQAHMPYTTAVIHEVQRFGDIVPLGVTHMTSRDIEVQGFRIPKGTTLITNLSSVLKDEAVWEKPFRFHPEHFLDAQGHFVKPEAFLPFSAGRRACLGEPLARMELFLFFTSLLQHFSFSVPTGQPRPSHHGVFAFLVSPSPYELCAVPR

[2] = target: T4, PPARG (peroxisome proliferator activated receptor-gamma), GST-PPARG-LBD (Homo sapiens, UniProt P37231); experiment: LanthaScreen TR-FRET PPARG Competitive Binding Assay; parameters: key: “+” indicates the degree of the binding activity, and as the number of “+” increases, the binding activity is stronger; ++: “+” indicates the degree of the binding activity, and as the number of “+” increases, the binding activity is stronger; +++: “+” indicates the degree of the binding activity, and as the number of “+” increases, the binding activity is stronger; ++++: “+” indicates the degree of the binding activity, and as the number of “+” increases, the binding activity is stronger; settings: degree of binding activity
T4 construct: 15 μL of 5 nM GST-PPARG-LBD and 5 nM Tb-GST-antibody were added; purchased Invitrogen PV4894
T4 sequence (P37231 238-503 limits assumed): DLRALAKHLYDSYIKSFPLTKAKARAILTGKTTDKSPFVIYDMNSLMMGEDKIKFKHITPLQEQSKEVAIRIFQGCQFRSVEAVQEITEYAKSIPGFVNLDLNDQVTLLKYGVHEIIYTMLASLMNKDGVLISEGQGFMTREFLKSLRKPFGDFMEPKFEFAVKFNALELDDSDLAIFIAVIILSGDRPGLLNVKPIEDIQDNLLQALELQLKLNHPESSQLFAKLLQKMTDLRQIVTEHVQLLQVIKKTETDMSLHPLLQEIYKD
How it was run: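 Ratio of 518 nm to 488 nm time-resolved emission after a 1 h room-temperature incubation, in competition format with GST-PPARG ligand-binding domain. Values are expressed as 100% minus compound-to-vehicle ratio and related to rosiglitazone binding.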

CYP 2C19 = target: T5, CYP 2C19 (Homo sapiens, UniProt P33261); experiment: CYP (cytochrome P450)-suppressing effect, BD GENTEST kit; assay type: in vitro ADME
T5 construct: purchased BD GENTEST 459400
T5 sequence (P33261 whole entry): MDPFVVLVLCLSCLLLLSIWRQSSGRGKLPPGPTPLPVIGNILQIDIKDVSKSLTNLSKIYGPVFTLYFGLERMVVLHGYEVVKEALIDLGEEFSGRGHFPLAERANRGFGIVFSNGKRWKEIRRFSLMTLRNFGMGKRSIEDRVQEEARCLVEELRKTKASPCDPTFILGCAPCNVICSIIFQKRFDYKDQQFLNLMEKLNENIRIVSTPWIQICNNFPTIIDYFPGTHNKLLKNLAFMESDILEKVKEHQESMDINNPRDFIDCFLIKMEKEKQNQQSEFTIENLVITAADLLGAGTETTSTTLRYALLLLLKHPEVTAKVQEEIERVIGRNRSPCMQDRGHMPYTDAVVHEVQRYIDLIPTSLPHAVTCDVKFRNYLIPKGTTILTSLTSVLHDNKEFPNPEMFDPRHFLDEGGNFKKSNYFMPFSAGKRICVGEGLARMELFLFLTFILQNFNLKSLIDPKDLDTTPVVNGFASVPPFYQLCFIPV

CYP 3A4 = target: T6, CYP 3A4 (Homo sapiens, UniProt P08684); experiment: as above; assay type: in vitro ADME
T6 construct: purchased BD GENTEST 459500
T6 sequence (P08684 whole entry): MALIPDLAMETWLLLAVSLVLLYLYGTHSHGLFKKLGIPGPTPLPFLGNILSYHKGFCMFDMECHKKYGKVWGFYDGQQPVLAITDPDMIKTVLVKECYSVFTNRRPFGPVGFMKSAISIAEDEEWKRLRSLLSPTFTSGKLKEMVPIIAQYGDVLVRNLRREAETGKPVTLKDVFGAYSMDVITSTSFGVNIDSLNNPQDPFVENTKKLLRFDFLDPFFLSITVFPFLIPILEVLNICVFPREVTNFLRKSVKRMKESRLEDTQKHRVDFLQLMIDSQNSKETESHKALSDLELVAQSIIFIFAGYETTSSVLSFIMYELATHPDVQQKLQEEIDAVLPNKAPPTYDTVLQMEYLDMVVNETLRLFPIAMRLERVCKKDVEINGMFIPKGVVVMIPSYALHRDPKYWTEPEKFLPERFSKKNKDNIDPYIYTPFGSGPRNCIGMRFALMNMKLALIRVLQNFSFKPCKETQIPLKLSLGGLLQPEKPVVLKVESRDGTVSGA

CYP1A2 = target: T7, CYP1A2 (Homo sapiens, UniProt P05177); experiment: as above; assay type: in vitro ADME
T7 construct: purchased BD GENTEST 459100
T7 sequence (P05177 1-516): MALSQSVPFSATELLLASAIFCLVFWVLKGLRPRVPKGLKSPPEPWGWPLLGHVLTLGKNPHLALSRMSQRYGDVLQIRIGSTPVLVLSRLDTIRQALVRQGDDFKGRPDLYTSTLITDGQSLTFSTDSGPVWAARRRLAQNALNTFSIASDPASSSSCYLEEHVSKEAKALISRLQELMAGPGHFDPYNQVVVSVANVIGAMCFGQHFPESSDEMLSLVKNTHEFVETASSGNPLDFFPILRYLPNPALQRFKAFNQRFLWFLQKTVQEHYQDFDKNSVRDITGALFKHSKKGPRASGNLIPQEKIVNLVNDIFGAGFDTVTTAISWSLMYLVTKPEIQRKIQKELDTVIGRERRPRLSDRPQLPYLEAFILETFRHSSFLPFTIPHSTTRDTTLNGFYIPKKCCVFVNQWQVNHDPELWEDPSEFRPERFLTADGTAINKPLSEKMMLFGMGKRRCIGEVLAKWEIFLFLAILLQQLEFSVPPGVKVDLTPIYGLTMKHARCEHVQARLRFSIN

[3] = test system: CYP isozymes 1A2, 2C9, 2C19, and 2D6; experiment: CYP suppression compared with comparative examples (Table 3); assay type: in vitro ADME; settings: result in words
bone cells = settings: cell culture test; cited from earlier work

T1 sequence (Q12809 whole entry): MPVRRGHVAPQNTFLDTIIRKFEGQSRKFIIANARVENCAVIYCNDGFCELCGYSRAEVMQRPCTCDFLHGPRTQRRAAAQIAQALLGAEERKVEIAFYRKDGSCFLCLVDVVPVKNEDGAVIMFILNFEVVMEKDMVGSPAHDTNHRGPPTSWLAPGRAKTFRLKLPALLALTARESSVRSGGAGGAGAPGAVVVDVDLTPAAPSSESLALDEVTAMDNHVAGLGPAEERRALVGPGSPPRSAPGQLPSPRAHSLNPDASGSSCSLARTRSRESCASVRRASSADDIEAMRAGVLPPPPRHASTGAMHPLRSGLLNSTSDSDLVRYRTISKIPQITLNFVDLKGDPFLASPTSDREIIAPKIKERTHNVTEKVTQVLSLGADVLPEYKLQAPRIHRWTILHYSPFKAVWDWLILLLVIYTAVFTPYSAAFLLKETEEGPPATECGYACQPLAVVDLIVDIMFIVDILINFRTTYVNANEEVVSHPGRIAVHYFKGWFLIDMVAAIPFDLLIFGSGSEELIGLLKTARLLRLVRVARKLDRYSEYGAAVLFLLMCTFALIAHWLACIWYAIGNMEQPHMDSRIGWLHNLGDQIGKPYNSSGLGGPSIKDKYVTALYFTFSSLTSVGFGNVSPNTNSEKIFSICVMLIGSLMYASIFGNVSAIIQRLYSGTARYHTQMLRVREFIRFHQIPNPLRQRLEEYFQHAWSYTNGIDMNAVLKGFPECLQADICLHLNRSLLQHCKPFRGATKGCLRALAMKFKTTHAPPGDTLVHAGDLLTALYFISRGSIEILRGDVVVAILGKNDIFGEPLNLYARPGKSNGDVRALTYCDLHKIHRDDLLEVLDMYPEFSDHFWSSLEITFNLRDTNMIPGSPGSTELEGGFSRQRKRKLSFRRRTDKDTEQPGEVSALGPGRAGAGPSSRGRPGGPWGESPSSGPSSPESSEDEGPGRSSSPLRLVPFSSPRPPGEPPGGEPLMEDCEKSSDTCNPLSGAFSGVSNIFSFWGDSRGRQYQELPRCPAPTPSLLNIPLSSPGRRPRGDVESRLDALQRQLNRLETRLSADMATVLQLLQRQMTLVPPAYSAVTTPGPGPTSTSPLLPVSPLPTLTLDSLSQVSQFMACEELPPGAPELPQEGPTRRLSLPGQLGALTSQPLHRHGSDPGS

SMILES	IC50 [1] [µM]	CYP(10 μL, %) 2C9 (CYP 2C9) [%]	CYP(10 μL, %) 2D6 (CYP 2D6) [%]	Binding assay (1 μLM) [2]	CYP(10 μL, %) 2C19 (CYP 2C19) [%]	CYP(10 μL, %) 3A4 (CYP 3A4) [%]	CYP(10 μL, %) 1A2 (CYP1A2) [%]	suppression of CYP isozymes 1A2, 2C9, 2C19, and 2D6 compared with SR1664 and SR1824 [3]	fat generation in bone cells (bone cells)
Cc1ccc([C@H](C)NC(=O)c2ccc3c(c2)CCCN3Cc2ccc(-c3ccccc3C(=O)[O-])cc2)cc1F.[Na+] [Example 56, sodium (S)-4′-((6-((1-(3-fluoro-4-methylphenyl)ethyl)carbamoyl)-3,4-dihydroquinoline-1(2H)-yl)methyl)-[1,1′-biphenyl]-2-carboxylate]	72.6	55.36	94.15	++++	85.71	54.62	100.73	less than the compounds of the comparative examples; also recorded: less strongly than the compounds of the Comparative Examples	
Cc1c(C)n(Cc2ccc(-c3ccccc3C(=O)O)cc2)c2ccc(C(=O)N[C@@H](C)c3ccc([N+](=O)[O-])cc3)cc12 [SR1664]									does not induce problems such as fat generation in bone cells
